# Measured values published in PMC7551400, “Moderate Wine Consumption Reduces Faecal Water Cytotoxicity in Healthy Volunteers” (Nutrients, 2020).
# Read-outs that look alike come from different tables or passages of the source.
# What was measured:
# HCT 116 cells = test: MTT cytotoxicity assay, reference compounds; type: cell-based; conditions: Homo sapiens, read-out: Toxicity (IC50 value)
# Protocol: (§1) Two human colon adenocarcinoma cell lines, HT-29 (ATCC® HTB-38TM) and […]), were used to evaluate cell cytotoxicity. […] Biowest Europe, Nuaillé, France). […] Cells were grown in 75 cm^2 flasks (Corning Flask, Corning, NY, USA) at 37 °C and in a 5% CO2 atmosphere and the media were renewed every 3 days. […] Cells were seeded at a density of 3.6 × 10^5 cells/mL on well plates, and washed with warm DPBS. […] After that, supernatants were removed from the wells, and MTT (Sigma-Aldrich, St. Louis, MO, USA) solution (0.5 mg/mL) was added (100 μL/well). The plates were immediately incubated for 3 h in darkness. After this time, MTT reagent was aspirated and formazan crystals were diluted in 100 μL of dimethyl sulfoxide (DMSO; Sigma-Aldrich, St. Louis, MO, USA). Absorbance at 570 nm was measured on a Multiskan plate reader (Thermo Scientific, Newington, NH, USA). Cell viability (%) was calculated as Abssample/Abscontrol × 100. Assays were performed in triplicate and three independent experiments were carried out.
# HT-29 cells [1] = test: MTT cytotoxicity assay, reference compounds; type: cell-based; conditions: Homo sapiens, read-out: Toxicity (IC50 value)
# Protocol: as §1
# HT-29 Glc–/þ cell line = test system: HT-29 Glc–/þ cell line; set-up: method as in PMID 25881551; conditions: 24 h incubation; cited from earlier work
# HT-29 cells [2] = conditions: cited from earlier work
# Caco 2 cells = test system: Caco 2 cells; set-up: method as in PMID 30359553; conditions: 24 h of incubation; cited from earlier work
SMILES,"IC50 (HCT 116 cells; HCT 116, 4 h incubation, MTT)","IC50 (HCT 116 cells; HCT 116, 24 h incubation, MTT)","IC50 (HT-29 cells [1]; HT-29, 4 h incubation, MTT)","IC50 (HT-29 cells [1]; HT-29, 24 h incubation, MTT)",Concentration with cytotoxicity effects (HT-29 Glc–/þ cell line),Concentration from which a cytotoxic effect was exerted (HT-29 cells [2]; 24 h of incubation),Concentration from which a cytotoxic effect was exerted (Caco 2 cells),"IC50 (HCT 116 cells; HCT-116, 4 h)","IC50 (HCT 116 cells; HCT-116, 24 h)","IC50 (HT-29 cells [1]; HT-29, 4 h)","IC50 (HT-29 cells [1]; HT-29, 24 h)",Concentration at which compound became cytotoxic (HT-29 cells [2])
"Cc1ccc(O)cc1 [p-Cresol, p-cresol]",5.64 mM,4.16 mM,5.4 mM,2.13 mM,800 µM,≥ 3000 µM,≥ 3000 µM,–,–,–,–,–
Oc1ccccc1 [Phenol],–,–,–,–,–,–,–,23.8 mM,11.4 mM,15.8 mM,6.16 mM,1250 µM
